Test results from patent US20240174618A1, “SUBSTITUTED (2-HETEROARYLOXYPHENYL)SULFONATES, SALTS THEREOF AND THEIR USE AS HERBICIDAL AGENTS” (Bayer Aktiengesellschaft, priority 2021, published 2024).

Tests used:
Type in all cases: in vivo
[1] = tested on: Digitaria sanguinalis (DIGSA); experiment: C. Herbicidal pre-emergence efficacy, DIGSA; settings: 320 g/ha, scored after about 3 weeks
Source text: (§1) Seeds of monocotyledonous and dicotyledonous weed plants and crop plants were placed in plastic or organic planting pots and covered with soil. The compounds of the invention, formulated in the form of wettable powders (WP) or as emulsion concentrates (EC), were then applied to the surface of the covering soil as aqueous suspension or emulsion with addition of 0.5% additive at a water application rate equivalent to 600 l/ha (converted). After the treatment, the pots were placed in a greenhouse and kept under good growth conditions for the test plants. After about 3 weeks, the efficacy of the preparations was scored visually in comparison with untreated controls as percentages. For example, • 100% efficacy=plants have died, • 0% efficacy=like untreated control plants.
(§2) Tables C1a to C14b below show the effects of selected compounds of the general formula (I) according to table 1 on various harmful plants at an application rate corresponding to 320 g/ha or less, which were obtained by the experimental procedure mentioned above.

Kochia scoparia (KCHSC) [2] = experiment: E. Herbicidal post-emergence efficacy, KCHSC
Protocol: (§3) Seeds of monocotyledonous and dicotyledonous weeds and crop plants were placed in sandy loam in plastic or organic planting pots, covered with soil and cultivated in a greenhouse under controlled growth conditions. 2 to 3 weeks after sowing, the test plants were treated at the one-leaf stage. The compounds of the invention, formulated in the form of wettable powders (WP) or as emulsion concentrates (EC), were then sprayed onto the green parts of the plants as aqueous suspension or emulsion with addition of 0.5% additive at a water application rate of 600 l/ha (converted). After the test plants had been kept in the greenhouse under optimum growth conditions for about 3 weeks, the activity of the preparations was rated visually in comparison to untreated controls.
(§4) For example, • 100% efficacy=plants have died, • 0% action=like untreated control plants.
(§5) Tables E1a to E12b below show the effects of selected compounds of the general formula (I) according to table 1 on various harmful plants at an application rate corresponding to 320 g/ha or less, which were obtained by the experimental procedure mentioned above.

Glycine max (GLXMA) = experiment: D. Pre-emergence effect on useful plants, GLXMA; settings: useful plant
Source text: as §1
(§6) Tables D1a to D5b below show the effects of selected compounds of the general formula (I) according to table 1 on various useful plants at an application rate corresponding to 320 g/ha or less, which were obtained by the experimental procedure mentioned above.

Veronica persica (VERPE) = experiment: E. Herbicidal post-emergence efficacy, VERPE
Protocol: as §3, §4, §5

Viola tricolor (VIOTR) = experiment: C. Herbicidal pre-emergence efficacy, VIOTR; settings: application rate 320 g/ha
Source text: as §1, §2

Setaria viridis (SETVI) = experiment: C. Herbicidal pre-emergence efficacy, SETVI; settings: 320 g/ha, scored after about 3 weeks
Source text: as §1, §2

[3] = tested on: Triticum aestivum (TRZAS); experiment: F. Post-emergence effect on useful plants, TRZAS; settings: useful plant, application rate 80 g/ha
Protocol: as §3, §4
Tables F1a to F4 below show the effects of selected compounds of the general formula (I) according to table 1 on various useful plants at an application rate corresponding to 320 g/ha or less, which were obtained by the experimental procedure mentioned above.

[4] = tested on: Triticum aestivum (TRZAS); experiment: D. Pre-emergence effect on useful plants, TRZAS; settings: useful plant
Source text: as §1, §6

Zea mays (ZEAMX) = experiment: D. Pre-emergence effect on useful plants, ZEAMX; settings: useful plant, application rate 80 g/ha
Source text: as §1, §6

[5] = tested on: Abutilon theophrasti (ABUTH); experiment: E. Herbicidal post-emergence efficacy, ABUTH; settings: application rate 320 g/ha
Protocol: as §3, §4, §5

[6] = tested on: Amaranthus retroflexus (AMARE); experiment: E. Herbicidal post-emergence efficacy, AMARE
Protocol: as §3, §4, §5

Kochia scoparia (KCHSC) [7] = experiment: C. Herbicidal pre-emergence efficacy, KCHSC; settings: application rate 320 g/ha
Source text: as §1, §2

[8] = tested on: Matricaria inodora (MATIN); experiment: C. Herbicidal pre-emergence efficacy, MATIN; settings: 320 g/ha, scored after about 3 weeks
Source text: as §1, §2

[9] = tested on: Amaranthus retroflexus (AMARE); experiment: C. Herbicidal pre-emergence efficacy, AMARE; settings: scored after about 3 weeks
Source text: as §1, §2

Brassica napus (BRSNW) = experiment: D. Pre-emergence effect on useful plants, BRSNW; settings: useful plant
Source text: as §1, §6

[10] = tested on: Pharbitis purpurea (PHBPU); experiment: E. Herbicidal post-emergence efficacy, PHBPU; settings: application rate 320 g/ha
Protocol: as §3, §4, §5

O=S(=O)(CC=C(Cl)Cl)Oc1c(F)cccc1Oc1ncc(Cl)cn1 [Example I-85]
Pre-emergence efficacy against DIGSA [1]: 100%
Post-emergence efficacy against KCHSC in % (Kochia scoparia (KCHSC) [2]; application rate 80 g/ha): 80%
Post-emergence efficacy against KCHSC in % (Kochia scoparia (KCHSC) [2]; application rate 320 g/ha): 100%
Pre-emergence efficacy against GLXMA in % (Glycine max (GLXMA); application rate 80 g/ha): 0%
Pre-emergence efficacy against GLXMA in % (Glycine max (GLXMA); application rate 320 g/ha): 0%
Post-emergence efficacy against VERPE in % (Veronica persica (VERPE); application rate 80 g/ha): 100%
Post-emergence efficacy against VERPE in % (Veronica persica (VERPE); application rate 320 g/ha): 100%
Pre-emergence efficacy against VIOTR in % (Viola tricolor (VIOTR)): 80%
Pre-emergence efficacy against SETVI (Setaria viridis (SETVI)): 90%
Post-emergence efficacy against TRZAS in % [3]: 0%
Pre-emergence efficacy against TRZAS in % ([4]; application rate 80 g/ha): 0%
Pre-emergence efficacy against TRZAS in % ([4]; application rate 320 g/ha): 10%
Pre-emergence efficacy against ZEAMX in % (Zea mays (ZEAMX)): 0%
Post-emergence efficacy against ABUTH in % [5]: 80%
Post-emergence efficacy against AMARE in % ([6]; application rate 80 g/ha): 90%
Post-emergence efficacy against AMARE in % ([6]; application rate 320 g/ha): 100%
Pre-emergence efficacy against KCHSC in % (Kochia scoparia (KCHSC) [7]): 100%
Pre-emergence efficacy against MATIN [8]: 80%
Pre-emergence efficacy against AMARE ([9]; 80 g/ha): 100%
Pre-emergence efficacy against AMARE ([9]; 320 g/ha): 100%
Pre-emergence efficacy against BRSNW in % (Brassica napus (BRSNW); application rate 80 g/ha): 0%
Pre-emergence efficacy against BRSNW in % (Brassica napus (BRSNW); application rate 320 g/ha): 0%
Post-emergence efficacy against PHBPU in % [10]: 90%
